Measured values published in patent US5087639A, “Preventing CNS toxicity of acivicin when used with four large neutral amino acids” (The Upjohn Company, priority 1988, dated 1992).
Like-named read-outs stand apart in the source and are kept apart here.

How the values were obtained:
[1] = Plasma pharmacokinetics of acivicin in cats with concomitant infusion; conditions: cat, in vivo, ip, 60 mg/kg, mean ± s.d.; for Vd/F: read-out: Varea
Method: Blood was sampled through the blood sampling cannula at -4.0, 0, +4, +6, +9, +12, +18, +24 and +30 hours relative to the acivicin dose, for determination of acivicin concentration by microbiological assay.

cancer patients [2] = conditions: cited from earlier work
cancer patients [3] = conditions: clinical trials conducted to date; cited from earlier work
tumor cell = conditions: laboratory data; cited from earlier work
Acivicin-Treated Cats = test: Incidence of toxic symptoms (mydriasis, vomiting, sedation, ataxia) in acivicin-treated cats with concomitant infusion
[4] = acivicin 60 mg/kg i.p. plus infusion of the named solution, label Acivicin = saline infusion, affected/treated cats

## N[C@H](C(=O)O)[C@@H]1CC(Cl)=NO1 [Acivicin, (αS,5S)-α-amino-3-chloro-2-isoxazoline-5-acetic acid]
[1]; Aminosyn infusion, n=2
  CL/F: 1.83 mL/min/kg
  half-life: 258 ± 42 min
  k el: 4.44e-05 s⁻¹
  Vd/F: 0.684 ± 0.064 L/kg
[1]; LNAA infusion, n=3
  CL/F: 1.05 mL/min/kg
  half-life: 498 ± 48 min
  k el: 2.33e-05 s⁻¹
  Vd/F: 0.75 ± 0.081 L/kg
[1]; OAA infusion, n=3
  CL/F: 1.28 mL/min/kg
  half-life: 444 ± 63.6 min
  k el: 2.64e-05 s⁻¹
  Vd/F: 0.814 ± 0.061 L/kg
[1]; Saline infusion, n=3
  CL/F: 1.28 mL/min/kg
  half-life: 504 ± 150 min
  k el: 2.42e-05 s⁻¹
  Vd/F: 0.893 ± 0.143 L/kg
[1]; second line "aminosyn", n=4
  CL/F: 0.918 mL/min/kg
  half-life: 491 ± 81.6 min
  k el: 2.58e-05 s⁻¹
  Vd/F: 0.625 ± 0.0123 L/kg
[1]; second line "saline", n=4
  CL/F: 1.85 mL/min/kg
  half-life: 156 ± 24.6 min
  k el: 7.64e-05 s⁻¹
  Vd/F: 0.408 ± 0.0331 L/kg
Cancer patients [2]; dose-limiting
  CNS effects in humans: reversible, dose-limiting CNS effects such as sedation, ataxia, personality changes and hallucinations
Cancer patients [2]; previous Phase I and II trials
  dose-limiting toxicity: neurotoxicity which is dose-dependent and reversible
Cancer patients [3]
  efficacy in clinical trials: marginal
Tumor cell
  dependence of cytotoxicity on tumor cell exposure concentration and duration: strong dependence
Acivicin-Treated Cats; [4]
  incidence of ataxia: 4/4
  incidence of mydriasis: 4/4
  incidence of sedation: 4/4
  incidence of vomiting: 1/4
Acivicin-Treated Cats; acivicin-treated cats, label Acivicin = saline-treated
  ataxia and sedation (in words): both ataxic sedated
